Assay results reported in PMC5943271, “Biosynthetic pathway for furanosteroid demethoxyviridin and identification of an unusual pregnane side-chain cleavage” (Nature Communications, 2018).
Like-named read-outs stand apart in the source and are kept apart here.

Legend:
[1] = biological target: PI3K gamma kinase (Homo sapiens, UniProt P48736); assay: In vitro PI3K gamma kinase assay (PI3-Kinase (human) HTRF Assay kit); format: biochemical; conditions: for IC50: PI3K gamma, 10 μM PIP2, 10 μM ATP, room temperature 1 h, HTRF, two replicates, read-out: IC50 value, PI3K inhibitory activity
[2] = Cytotoxicity assay (CCK-8) against breast cancer cell line MCF-7; format: cell-based, human; conditions: human, MCF-7 breast cancer cells (ATCC HTB-22), MCF-7, 48 h
[3] = tested on: MCF-7 cells; assay: Cytotoxicity assay (CCK-8) against breast cancer cell line MCF-7; format: cell-based, human; conditions: MCF-7, 40 μM, 48 h
[4] = parameters: method as in PMID 19523825; conditions: cited from earlier work

PI3K gamma kinase, sequence (P48736 whole entry): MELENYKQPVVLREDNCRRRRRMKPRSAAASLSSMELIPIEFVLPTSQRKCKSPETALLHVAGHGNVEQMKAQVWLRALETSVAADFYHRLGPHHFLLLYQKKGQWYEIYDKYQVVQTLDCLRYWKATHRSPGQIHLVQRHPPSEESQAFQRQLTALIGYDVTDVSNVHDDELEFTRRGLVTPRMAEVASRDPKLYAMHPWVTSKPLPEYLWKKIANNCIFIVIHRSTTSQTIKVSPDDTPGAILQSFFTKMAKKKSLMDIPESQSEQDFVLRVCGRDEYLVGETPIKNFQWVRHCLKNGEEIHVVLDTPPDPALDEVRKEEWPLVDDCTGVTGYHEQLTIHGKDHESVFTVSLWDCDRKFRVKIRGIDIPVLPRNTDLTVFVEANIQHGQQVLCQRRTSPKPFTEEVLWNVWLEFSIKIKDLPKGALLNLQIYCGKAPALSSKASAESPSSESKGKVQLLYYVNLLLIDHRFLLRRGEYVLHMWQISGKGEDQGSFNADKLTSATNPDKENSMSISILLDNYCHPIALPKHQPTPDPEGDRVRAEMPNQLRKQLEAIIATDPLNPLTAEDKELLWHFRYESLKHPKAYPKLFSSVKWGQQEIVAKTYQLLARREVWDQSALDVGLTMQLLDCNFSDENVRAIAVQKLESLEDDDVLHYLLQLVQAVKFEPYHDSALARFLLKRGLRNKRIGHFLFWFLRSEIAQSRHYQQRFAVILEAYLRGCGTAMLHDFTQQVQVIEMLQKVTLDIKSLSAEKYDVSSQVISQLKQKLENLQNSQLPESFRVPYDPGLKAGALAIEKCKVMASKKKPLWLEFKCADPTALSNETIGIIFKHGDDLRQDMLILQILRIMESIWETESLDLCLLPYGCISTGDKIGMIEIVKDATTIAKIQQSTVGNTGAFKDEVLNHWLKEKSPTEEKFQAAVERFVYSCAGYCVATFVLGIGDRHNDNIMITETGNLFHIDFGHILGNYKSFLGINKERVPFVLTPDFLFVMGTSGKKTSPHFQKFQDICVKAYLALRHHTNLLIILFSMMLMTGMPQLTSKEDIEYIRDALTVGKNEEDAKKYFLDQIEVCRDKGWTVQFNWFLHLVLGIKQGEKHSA

melting point	Compound	IC50 [1]	other results
–	C[C@]12CCC3=C(C(=O)c4occ5c4[C@]3(C)CCC5=O)[C@@H]1CC[C@@H]2O [Compound 7, (6bR,9S,9aS,11bR)-9-hydroxy-9a,11b-dimethyl-1,2,6b,7,8,9,9a,10,11,11b-decahydrocyclopenta[7,8]phenanthro[10,1-bc]furan-3,6-dione]	42.7 nM	IC50 at 48 h ([2]; read-out: IC50 value, cytotoxicity against MCF-7): 15000 nM
218.2 to 221.7 °C	CC(=O)[C@H]1CC[C@H]2C3=C(CC[C@]12C)[C@@]1(C)CC[C@H](O)C2=C1[C@@](O)(OC2)C3=O	–	–
187.1 to 189.6 °C	C[C@]12CCC3=C(C(=O)c4occ5c4[C@]3(C)CC[C@@H]5O)[C@@H]1CC[C@@H]2O	–	–
–	C[C@]12CCC(=O)c3coc(c31)C(=O)c1c2ccc2c1CCC2=O [Compound 3, dehydroxydemethoxyviridin]	167 nM	–
–	C[C@@]12c3ccc4c(c3C(=O)c3occ(c31)C(=O)C[C@H]2O)CCC4=O [Compound 1, demethoxyviridin]	6.6 nM	cytotoxicity against MCF-7 (in words) [3]: moderate cytotoxicity; stability in PBS and culture media (in words) [4]: instability
–	C[C@@]12c3ccc4c(c3C(=O)c3occ(c31)[C@@H](O)C[C@H]2O)CCC4=O [Compound 2, demethoxyviridiol]	1070 nM	IC50 at 48 h ([2]; three replicates, read-out: IC50 value, cytotoxicity against MCF-7 (Supplementary Figure 9b)): 37300 nM
236.4 to 238.7 °C	C[C@]12CC[C@H](O)c3coc(c31)C(=O)C1=C2C=C[C@]2(C)C(=O)CC[C@@H]12	–	–
–	CC(=O)O[C@H]1CC[C@H]2C3=C(CC[C@]12C)[C@@]1(C)CC[C@H](O)c2coc(c21)C3=O [Compound 9, (3S,6bR,9S,9aS,11bR)-3-hydroxy-9a,11b-dimethyl-6-oxo-1,2,3,6,6b,7,8,9,9a,10,11,11b-dodecahydrocyclopenta[7,8]phenanthro[10,1-bc]furan-9-yl acetate]	–	inhibitory effect on PI3K (in words) ([1]; 10 μM sample, Fig. 8a): abolishes the activity
–	CC(=O)[C@H]1CC[C@H]2C3=C(CC[C@]12C)[C@@]1(C)CCC(=O)c2coc(c21)C3=O [Compound 10, virone]	2250 nM	–
